Laboratory results as given in ChEMBL document CHEMBL1641379, “PEGylated derivatives of cystamine as enhanced treatments for nephropathic cystinosis” (Bioorg Med Chem Lett, 2011).
Activity calls are given as the source filed them. No cut-off for these calls is given here.

How the values were obtained:
[1] = Cytotoxicity against human cystinotic fibroblast at 50 uM after 72 hrs by alamar blue assay; format: cell-based
[2] = test system: Fibroblast; test: Antinephropathic cystinosis activity in human cystinotic fibroblast assessed as decrease in cystine level at 50 uM after 24 hrs by Bradford reagent method; format: functional, cell-based

| SMILES | Activity [1] | inhibition [2] |
| --- | --- | --- |
| NCCS [CYSTEAMINE] | Non-toxic | Active |
| COCCOCCOCCOCCNC(=O)CCC(=O)NCCSSCCNC(=O)CCC(=O)NCCOCCOCCOCCOC | Non-toxic | Active |
| COCCOCCOCCNC(=O)CCC(=O)NCCSSCCNC(=O)CCC(=O)NCCOCCOCCOC | Non-toxic | Active |
| COCCOCCOCCNC(=O)CCCC(=O)NCCSSCCNC(=O)CCCC(=O)NCCOCCOCCOC | Non-toxic | Active |
| COCCOCCOCCOCCNC(=O)CCCC(=O)NCCSSCCNC(=O)CCCC(=O)NCCOCCOCCOCCOC |  | Active |
